Source: PubChem BioAssay (NCI)
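GI50: concentration for 50% inhibition of growth. At the TGI there is no net growth.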

Assays:
Test in all cases: NCI tumour cell line growth inhibition, 384-well format
PC-3 prostate = system: PC-3 prostate
KM12 colon = system: KM12 colon
HCT-15 colon = system: HCT-15 colon
SF-295 CNS = system: SF-295 CNS
SK-MEL-5 melanoma = system: SK-MEL-5 melanoma
A549 NSCLC = system: A549 NSCLC
MALME-3M melanoma = system: MALME-3M melanoma
T-47D breast = system: T-47D breast
NCI-H23 lung = system: NCI-H23 lung
RXF 393 renal = system: RXF 393 renal
SK-OV-3 ovarian = system: SK-OV-3 ovarian
SF-268 CNS = system: SF-268 CNS
MDA-MB-231 breast = system: MDA-MB-231 breast
SN12C renal = system: SN12C renal
UO-31 renal = system: UO-31 renal
HT29 colon = system: HT29 colon
HL-60(TB) leukemia = system: HL-60(TB) leukemia
SK-MEL-28 melanoma = system: SK-MEL-28 melanoma
K-562 leukemia = system: K-562 leukemia
HOP-62 NSCLC = system: HOP-62 NSCLC
U251 glioblastoma = system: U251 glioblastoma
BT-549 breast = system: BT-549 breast
DU-145 prostate = system: DU-145 prostate
NCI-H460 NSCLC = system: NCI-H460 NSCLC
NCI-H522 lung = system: NCI-H522 lung
CCRF-CEM leukemia = system: CCRF-CEM leukemia
IGROV1 ovarian = system: IGROV1 ovarian
SW-620 colon = system: SW-620 colon

Nc1cc(C(F)(F)F)c(-c2cc(N3CCOCC3)nc(N3CCOCC3)n2)cn1 was tested, and the GI50 (PC-3 prostate) was 462 nM, the TGI (PC-3 prostate) was 6.93 µM and the GI50 (KM12 colon) was 894 nM. It also gave a TGI (KM12 colon) of 20.2 µM, a GI50 (HCT-15 colon) of 394 nM and a TGI (HCT-15 colon) of 4.11 µM. For the same compound, the GI50 (SF-295 CNS) was 361 nM, the TGI (SF-295 CNS) was 1540 nM and the GI50 (SK-MEL-5 melanoma) was 235 nM. It also gave a TGI (SK-MEL-5 melanoma) of 762 nM, a GI50 (A549 NSCLC) of 360 nM and a TGI (A549 NSCLC) of 12.4 µM. The GI50 (MALME-3M melanoma) was 272 nM, the TGI (MALME-3M melanoma) was 838 nM and the GI50 (T-47D breast) was 231 nM. For the same compound, the TGI (T-47D breast) was 776 nM, the GI50 (NCI-H23 lung) was 310 nM and the TGI (NCI-H23 lung) was 2260 nM. The GI50 (RXF 393 renal) was 285 nM, the TGI (RXF 393 renal) was 1300 nM and the GI50 (SK-OV-3 ovarian) was 560 nM. It also gave a TGI (SK-OV-3 ovarian) of 2550 nM, a GI50 (SF-268 CNS) of 384 nM and a TGI (SF-268 CNS) of 4.57 µM. For the same compound, the GI50 (MDA-MB-231 breast) was 819 nM, the TGI (MDA-MB-231 breast) was 44.9 µM and the GI50 (SN12C renal) was 1220 nM. It also gave a TGI (SN12C renal) of 7.12 µM, a GI50 (UO-31 renal) of 340 nM and a TGI (UO-31 renal) of 3.07 µM. For the same compound, the GI50 (HT29 colon) was 715 nM, the TGI (HT29 colon) was greater than 100 µM and the GI50 (HL-60(TB) leukemia) was 280 nM. It also gave a TGI (HL-60(TB) leukemia) of 1300 nM, a GI50 (SK-MEL-28 melanoma) of 485 nM and a TGI (SK-MEL-28 melanoma) of 3.34 µM. The GI50 (K-562 leukemia) was 459 nM, the TGI (K-562 leukemia) was 1830 nM and the GI50 (HOP-62 NSCLC) was 264 nM. The TGI (HOP-62 NSCLC) was 2730 nM, the GI50 (U251 glioblastoma) was 1770 nM and the TGI (U251 glioblastoma) was 4.37 µM. For the same compound, the GI50 (BT-549 breast) was 691 nM, the TGI (BT-549 breast) was 4.61 µM and the GI50 (DU-145 prostate) was 1990 nM. It also gave a TGI (DU-145 prostate) of 13.9 µM, a GI50 (NCI-H460 NSCLC) of 419 nM and a TGI (NCI-H460 NSCLC) of 1670 nM. The GI50 (NCI-H522 lung) was 341 nM, the TGI (NCI-H522 lung) was 1300 nM and the GI50 (CCRF-CEM leukemia) was 589 nM. For the same compound, the TGI (CCRF-CEM leukemia) was 1880 nM, the GI50 (IGROV1 ovarian) was 209 nM and the TGI (IGROV1 ovarian) was 572 nM. The GI50 (SW-620 colon) was 358 nM and the TGI (SW-620 colon) was greater than 100 µM.
